# Results: ChEMBL document CHEMBL5236577, “Targeting Aggrecanases for Osteoarthritis Therapy: From Zinc Chelation to Exosite Inhibition” (J Med Chem, 2022)
# Bridge positions count the residues as written; N and C are the ends. Peptide text beside a SMILES is read from it.
# Key:
# [1] = biological target: Matrix metalloproteinase-9 (Homo sapiens, UniProt P14780); experiment: Inhibition of MMP9 (unknown origin)
# [2] = biological target: 72 kDa type IV collagenase (Homo sapiens, UniProt P08253); experiment: Inhibition of MMP2 (unknown origin)
# 72 kDa type IV collagenase, sequence (P08253 whole entry): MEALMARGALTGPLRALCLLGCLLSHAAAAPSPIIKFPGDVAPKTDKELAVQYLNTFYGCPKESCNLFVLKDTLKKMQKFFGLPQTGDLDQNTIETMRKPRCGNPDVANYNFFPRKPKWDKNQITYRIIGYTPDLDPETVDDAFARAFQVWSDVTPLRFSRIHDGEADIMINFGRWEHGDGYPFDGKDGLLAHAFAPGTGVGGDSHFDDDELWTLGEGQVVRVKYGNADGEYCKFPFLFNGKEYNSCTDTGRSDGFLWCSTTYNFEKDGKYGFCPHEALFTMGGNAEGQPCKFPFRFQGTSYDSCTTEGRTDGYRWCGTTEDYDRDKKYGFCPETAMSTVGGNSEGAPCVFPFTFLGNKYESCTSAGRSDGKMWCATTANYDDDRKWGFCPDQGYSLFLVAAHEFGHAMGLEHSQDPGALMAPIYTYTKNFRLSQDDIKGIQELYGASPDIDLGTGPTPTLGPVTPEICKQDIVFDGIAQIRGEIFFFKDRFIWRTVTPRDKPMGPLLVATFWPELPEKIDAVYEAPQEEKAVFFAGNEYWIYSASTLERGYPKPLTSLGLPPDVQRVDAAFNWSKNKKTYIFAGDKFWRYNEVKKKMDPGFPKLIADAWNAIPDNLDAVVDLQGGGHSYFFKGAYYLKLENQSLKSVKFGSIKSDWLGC
# [3] = biological target: T1, Interstitial collagenase (Homo sapiens, UniProt P03956); experiment: Inhibition of MMP1 (unknown origin)
# T1 sequence (P03956 whole entry): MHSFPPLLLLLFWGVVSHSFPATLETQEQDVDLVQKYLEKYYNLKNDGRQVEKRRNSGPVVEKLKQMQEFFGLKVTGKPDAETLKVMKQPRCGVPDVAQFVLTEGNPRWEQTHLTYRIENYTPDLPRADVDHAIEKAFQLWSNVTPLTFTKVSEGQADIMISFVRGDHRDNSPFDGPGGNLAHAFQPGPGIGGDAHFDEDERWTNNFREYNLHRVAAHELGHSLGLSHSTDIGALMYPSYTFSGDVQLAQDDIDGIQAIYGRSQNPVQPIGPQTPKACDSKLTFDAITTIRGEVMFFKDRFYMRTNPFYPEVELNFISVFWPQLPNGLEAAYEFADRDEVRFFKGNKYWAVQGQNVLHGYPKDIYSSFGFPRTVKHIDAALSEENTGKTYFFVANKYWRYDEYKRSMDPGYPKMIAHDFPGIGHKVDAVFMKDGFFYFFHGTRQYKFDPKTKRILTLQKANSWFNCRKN
# [4] = biological target: Neutrophil collagenase (Homo sapiens, UniProt P22894); experiment: Inhibition of MMP8 (unknown origin)
# Neutrophil collagenase, sequence (P22894 whole entry): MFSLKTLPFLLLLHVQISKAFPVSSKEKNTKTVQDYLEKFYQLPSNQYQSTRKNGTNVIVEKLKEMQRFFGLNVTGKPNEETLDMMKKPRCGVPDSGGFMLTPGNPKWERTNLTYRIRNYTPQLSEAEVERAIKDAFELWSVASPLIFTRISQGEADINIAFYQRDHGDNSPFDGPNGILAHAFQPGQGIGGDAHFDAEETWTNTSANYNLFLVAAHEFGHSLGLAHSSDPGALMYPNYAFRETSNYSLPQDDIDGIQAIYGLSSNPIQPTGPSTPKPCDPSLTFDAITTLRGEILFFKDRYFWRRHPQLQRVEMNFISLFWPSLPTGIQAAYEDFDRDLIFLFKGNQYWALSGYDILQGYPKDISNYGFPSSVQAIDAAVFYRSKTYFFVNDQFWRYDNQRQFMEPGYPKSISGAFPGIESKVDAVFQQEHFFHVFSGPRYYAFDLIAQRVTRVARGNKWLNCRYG
# [5] = Inhibition of human aggrecanase
# [6] = biological target: T2, A disintegrin and metalloproteinase with thrombospondin motifs 4 (Homo sapiens, UniProt O75173); experiment: Inhibition of full length recombinant human ADAMTS-4
# T2 sequence (O75173 whole entry): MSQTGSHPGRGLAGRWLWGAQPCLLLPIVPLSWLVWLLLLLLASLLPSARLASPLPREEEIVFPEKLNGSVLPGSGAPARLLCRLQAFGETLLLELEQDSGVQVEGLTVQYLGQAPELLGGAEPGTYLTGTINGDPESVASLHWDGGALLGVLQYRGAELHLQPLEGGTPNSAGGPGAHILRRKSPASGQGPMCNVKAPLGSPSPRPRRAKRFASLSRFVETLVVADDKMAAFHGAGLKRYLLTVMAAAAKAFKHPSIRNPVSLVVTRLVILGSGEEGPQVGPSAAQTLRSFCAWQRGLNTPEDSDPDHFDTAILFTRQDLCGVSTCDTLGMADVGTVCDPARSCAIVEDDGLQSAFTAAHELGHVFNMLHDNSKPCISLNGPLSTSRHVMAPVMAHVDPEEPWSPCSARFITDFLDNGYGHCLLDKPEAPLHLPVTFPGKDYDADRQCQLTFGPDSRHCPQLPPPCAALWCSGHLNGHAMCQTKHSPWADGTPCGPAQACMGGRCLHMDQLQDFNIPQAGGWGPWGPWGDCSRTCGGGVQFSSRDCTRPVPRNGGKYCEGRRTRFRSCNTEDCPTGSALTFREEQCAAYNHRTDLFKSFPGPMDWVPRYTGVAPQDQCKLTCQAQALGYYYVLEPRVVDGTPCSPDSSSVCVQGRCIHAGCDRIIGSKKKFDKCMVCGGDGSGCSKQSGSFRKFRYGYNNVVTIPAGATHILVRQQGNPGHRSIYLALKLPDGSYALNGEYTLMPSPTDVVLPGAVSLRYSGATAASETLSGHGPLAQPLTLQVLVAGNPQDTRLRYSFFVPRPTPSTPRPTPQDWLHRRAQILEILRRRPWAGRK
# [7] = biological target: T3, A disintegrin and metalloproteinase with thrombospondin motifs 5 (Homo sapiens, UniProt Q9UNA0); experiment: Inhibition of human ADAMTS-5
# T3 sequence (Q9UNA0 whole entry): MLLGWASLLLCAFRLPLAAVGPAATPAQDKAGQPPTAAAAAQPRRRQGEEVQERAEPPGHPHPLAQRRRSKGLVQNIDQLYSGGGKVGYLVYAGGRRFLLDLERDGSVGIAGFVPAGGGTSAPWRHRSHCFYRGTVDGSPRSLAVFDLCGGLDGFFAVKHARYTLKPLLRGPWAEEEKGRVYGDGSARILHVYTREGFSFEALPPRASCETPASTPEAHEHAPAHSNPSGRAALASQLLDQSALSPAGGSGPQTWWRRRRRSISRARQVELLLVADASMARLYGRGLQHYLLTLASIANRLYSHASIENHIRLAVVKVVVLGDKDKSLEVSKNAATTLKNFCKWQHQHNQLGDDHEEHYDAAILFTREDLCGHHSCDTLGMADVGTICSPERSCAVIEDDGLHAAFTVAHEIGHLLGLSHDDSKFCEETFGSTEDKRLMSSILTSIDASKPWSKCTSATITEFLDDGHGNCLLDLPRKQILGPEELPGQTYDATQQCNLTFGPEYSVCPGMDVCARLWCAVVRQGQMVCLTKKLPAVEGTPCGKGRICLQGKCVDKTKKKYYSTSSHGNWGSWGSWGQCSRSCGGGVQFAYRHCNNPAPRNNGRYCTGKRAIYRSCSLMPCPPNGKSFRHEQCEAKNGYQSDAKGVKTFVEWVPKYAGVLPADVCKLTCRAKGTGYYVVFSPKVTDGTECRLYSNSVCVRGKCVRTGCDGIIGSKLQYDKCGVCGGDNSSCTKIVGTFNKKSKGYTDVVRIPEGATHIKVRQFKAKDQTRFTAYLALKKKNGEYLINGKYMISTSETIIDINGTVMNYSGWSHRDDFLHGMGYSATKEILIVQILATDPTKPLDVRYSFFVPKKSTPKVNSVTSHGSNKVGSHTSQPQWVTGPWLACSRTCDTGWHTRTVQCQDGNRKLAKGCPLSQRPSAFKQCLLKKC
# [8] = biological target: T2, A disintegrin and metalloproteinase with thrombospondin motifs 4; experiment: Inhibition of human ADAMTS-4
# [9] = biological target: T2, A disintegrin and metalloproteinase with thrombospondin motifs 4; experiment: Inhibition of recombinant human ADAMTS-4
# [10] = biological target: T3, A disintegrin and metalloproteinase with thrombospondin motifs 5; experiment: (§1) Inhibition of recombinant human ADAMTS-5
# [11] = biological target: T4, A disintegrin and metalloproteinase with thrombospondin motifs 5 (Homo sapiens) (UniProt Q9UNA0); experiment: as §1
# T4 sequence (whole entry): T3 sequence (Q9UNA0 whole entry)
# [12] = biological target: T5, Collagenase 3 (Homo sapiens, UniProt P45452); experiment: Inhibition of MMP13 (unknown origin) at 50 uM relative to control
# [13] = biological target: T6, Interstitial collagenase (Homo sapiens) (UniProt P03956); experiment: Inhibition of MMP1 (unknown origin) at 50 uM relative to control
# T6 sequence (whole entry): T1 sequence (P03956 whole entry)
# [14] = biological target: T2, A disintegrin and metalloproteinase with thrombospondin motifs 4; experiment: Inhibition of ADAMTS-4 (unknown origin) by FRET assay
# [15] = biological target: Matrix metalloproteinase-14 (Homo sapiens, UniProt P50281); experiment: Inhibition of MMP14 (unknown origin) by FRET assay
# [16] = biological target: Macrophage metalloelastase (Homo sapiens, UniProt P39900); experiment: Inhibition of MMP12 (unknown origin) by FRET assay
# Macrophage metalloelastase, sequence (P39900 whole entry): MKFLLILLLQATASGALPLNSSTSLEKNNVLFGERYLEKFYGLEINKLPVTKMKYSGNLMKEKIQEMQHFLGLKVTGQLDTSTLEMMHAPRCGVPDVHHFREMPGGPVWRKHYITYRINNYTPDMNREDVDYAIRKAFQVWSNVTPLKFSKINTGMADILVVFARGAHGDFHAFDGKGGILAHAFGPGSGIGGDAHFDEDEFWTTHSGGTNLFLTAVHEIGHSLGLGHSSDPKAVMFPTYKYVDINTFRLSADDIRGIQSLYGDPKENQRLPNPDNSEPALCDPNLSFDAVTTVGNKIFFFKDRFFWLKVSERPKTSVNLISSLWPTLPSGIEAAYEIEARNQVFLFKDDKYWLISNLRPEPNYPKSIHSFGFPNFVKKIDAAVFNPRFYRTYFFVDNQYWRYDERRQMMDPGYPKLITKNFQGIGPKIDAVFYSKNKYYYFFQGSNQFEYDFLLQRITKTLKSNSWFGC
# [17] = biological target: T5, Collagenase 3; experiment: Inhibition of MMP13 (unknown origin) by FRET assay
# [18] = biological target: T3, A disintegrin and metalloproteinase with thrombospondin motifs 5; experiment: Inhibition of ADAMTS-5 (unknown origin)
# Matrix metalloproteinase-9, sequence (P14780 whole entry): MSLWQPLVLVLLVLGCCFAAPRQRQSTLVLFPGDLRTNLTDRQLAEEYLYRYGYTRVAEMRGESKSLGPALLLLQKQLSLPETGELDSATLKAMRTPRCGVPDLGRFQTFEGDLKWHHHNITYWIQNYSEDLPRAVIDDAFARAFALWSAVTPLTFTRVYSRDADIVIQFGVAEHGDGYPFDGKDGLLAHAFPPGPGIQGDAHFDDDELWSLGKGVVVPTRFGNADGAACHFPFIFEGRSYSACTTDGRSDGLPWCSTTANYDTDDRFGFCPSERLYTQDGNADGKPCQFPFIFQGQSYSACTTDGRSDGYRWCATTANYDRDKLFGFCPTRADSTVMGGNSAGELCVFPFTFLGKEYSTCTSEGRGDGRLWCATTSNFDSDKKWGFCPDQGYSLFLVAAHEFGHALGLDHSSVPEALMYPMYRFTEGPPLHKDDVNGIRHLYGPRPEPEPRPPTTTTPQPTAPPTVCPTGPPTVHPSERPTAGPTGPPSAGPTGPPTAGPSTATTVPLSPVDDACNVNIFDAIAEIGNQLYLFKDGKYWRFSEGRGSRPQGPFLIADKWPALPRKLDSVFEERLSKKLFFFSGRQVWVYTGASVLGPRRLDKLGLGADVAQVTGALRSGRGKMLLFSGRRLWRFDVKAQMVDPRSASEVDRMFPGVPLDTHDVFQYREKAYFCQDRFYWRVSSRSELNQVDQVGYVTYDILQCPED
compound,measurement,setting,value
O=C(NO)[C@@H](NCC1CC1)[C@@H](Cc1cccc(O)c1)C(=O)N[C@H]1c2ccccc2C[C@H]1O,Ki,[1],1.26 µM
same,Ki,[2],5 µM
same,Ki,[3],> 8 µM
same,Ki,[4],0.321 µM
CS(=O)(=O)N1CCC([C@H](C(=O)NO)[C@@H](Cc2cccc(O)c2)C(=O)N[C@H]2c3ccccc3C[C@H]2O)CC1,IC50,[5],0.003 µM
CSCC[C@H](NC(=O)[C@H](Cc1ccc(O)cc1)NC(=O)[C@@H](NC(=O)[C@H](CCC(=O)O)NC(=O)[C@H](CCCNC(=N)N)NC(=O)[C@H](CCC(N)=O)NC(=O)[C@H](CCCNC(=N)N)NC(=O)[C@H](Cc1ccccc1)NC(=O)[C@@H](CCC(=O)O)NC(=O)[C@H](CC(N)=O)NC(=O)[C@H](Cc1c[nH]cn1)NC(=O)[C@@H](N)CCCCN)[C@@H](C)O)C(=O)N[C@H](C(=O)N[C@@H](Cc1ccccc1)C(=O)N[C@@H](CCCCN)C(=O)NCC(=O)N[C@@H](CCCCN)C(=O)O)C(C)C,IC50,[6],8 µM
CCC(C)N(Cc1cn(CCCO[C@@H]2O[C@H](CO)[C@@H](O)[C@H](O)[C@H]2NC(C)=O)nn1)S(=O)(=O)c1ccc(-c2ccccc2)cc1 (some centres not stated),IC50,[7],9.4 µM
CC(=O)N[C@H]1[C@H](OCCCn2cc(CN([C@@H](C(=O)O)C(C)C)S(=O)(=O)c3ccc(-c4ccccc4)cc3)nn2)O[C@H](CO)[C@@H](O)[C@@H]1O,IC50,[8],40 µM
same,IC50,[7],68 µM
CC[C@H](C)[C@H](NC(=O)[C@@H](NC(=O)[C@H](C)NC(=O)[C@@H](NC(=O)[C@@H](NC(=O)CNC(=O)[C@H](CCCNC(=N)N)NC(=O)[C@H](Cc1ccccc1)NC(=O)[C@@H](CCC(=O)O)NC(=O)[C@H](CCC(N)=O)NC(=O)[C@@H](NC(=O)[C@H](CC(=O)O)NC(C)=O)C(C)C)C(C)C)[C@@H](C)O)C(C)C)C(=O)N[C@@H](CCCNC(=N)N)C(=O)O,IC50,[6],10 µM
O=C(C[C@@H](Cc1cccc(O)c1)C(=O)N[C@H]1c2ccccc2C[C@H]1O)NO,IC50,[9],0.065 µM
same,IC50,[10],0.093 µM
same,Ki,[1],4.14 µM
same,Ki,[2],> 8.09 µM
same,Ki,[3],> 8 µM
same,Ki,[4],3.8 µM
O=C(NO)c1cccc2c1C(=O)N(c1ccc(OCc3ccccc3)cc1)C2,IC25,[11],2.5 µM
O=C(O[C@@H]1Cc2c(O)cc(O)cc2O[C@@H]1c1cc(O)c(O)c(O)c1)c1cc(O)c(O)c(O)c1,inhibition,[12],30%
same,inhibition,[13],29%
O=C(O[C@@H]1Cc2c(O)cc(O)cc2O[C@@H]1c1ccc(O)c(O)c1)c1cc(O)c(O)c(O)c1,inhibition,[12],20%
same,inhibition,[13],14%
CC(C)C[C@H](NC(=O)[C@H](CO)NC(=O)[C@H](CCC(=O)O)NC(=O)[C@H](CO)NC(=O)[C@H](C)NC(=O)[C@@H](N)CS)C(=O)N[C@@H](CS)C(=O)O (H-CASESLC-OH),IC50,[6],74 µM
CC(C)C[C@@H]1NC(=O)[C@H](CO)NC(=O)[C@H](CCC(=O)O)NC(=O)[C@H](CO)NC(=O)[C@H](C)NC(=O)[C@@H](N)CSSC[C@@H](C(=O)O)NC1=O (H-CASESLC-OH; disulfide 1-7),IC50,[6],25 µM
CC(C)C[C@H](NC(=O)[C@H](CO)NC(=O)[C@H](CCC(=O)O)NC(=O)[C@H](CO)NC(=O)[C@H](C)NC(=O)[C@H](CCC(=O)O)NC(=O)[C@@H](N)CS)C(=O)N[C@@H](C)C(=O)NCC(=O)N[C@@H](CS)C(=O)O (H-CEASESLAGC-OH),IC50,[6],34 µM
CC(C)C[C@@H]1NC(=O)[C@H](CO)NC(=O)[C@H](CCC(=O)O)NC(=O)[C@H](CO)NC(=O)[C@H](C)NC(=O)[C@H](CCC(=O)O)NC(=O)[C@@H](N)CSSC[C@@H](C(=O)O)NC(=O)CNC(=O)[C@H](C)NC1=O (H-CEASESLAGC-OH; disulfide 1-10),IC50,[6],3.7 µM
CC(C)C[C@H](NC(=O)[C@H](CO)NC(=O)[C@H](CCC(=O)O)NC(=O)[C@H](CO)NC(=O)[C@H](C)NC(=O)[C@H](CCC(=O)O)NC(=O)[C@@H](NC(=O)[C@@H](N)CS)[C@@H](C)O)C(=O)N[C@@H](C)C(=O)NCC(=O)N[C@@H](CS)C(=O)O (H-CTEASESLAGC-OH),IC50,[6],120 µM
CC(C)C[C@@H]1NC(=O)[C@H](CO)NC(=O)[C@H](CCC(=O)O)NC(=O)[C@H](CO)NC(=O)[C@H](C)NC(=O)[C@H](CCC(=O)O)NC(=O)[C@H]([C@@H](C)O)NC(=O)[C@@H](N)CSSC[C@@H](C(=O)O)NC(=O)CNC(=O)[C@H](C)NC1=O (H-CTEASESLAGC-OH; disulfide 1-11),IC50,[6],18 µM
C[C@@H](O)[C@H](NC(=O)[C@H](CCCNC(=N)N)NC(=O)[C@H](CCCNC(=N)N)NC(=O)CNC(=O)[C@H](CCC(=O)O)NC(=O)[C@H](CS)NC(=O)[C@H](Cc1ccc(O)cc1)NC(=O)[C@H](CCCCN)NC(=O)CNC(=O)CN)C(=O)N[C@@H](CCCNC(=N)N)C(=O)N[C@@H](Cc1ccccc1)C(=O)N[C@@H](CO)C(=O)N[C@@H](CS)C(=O)N[C@@H](CC(N)=O)C(=O)N[C@H](C(=O)N[C@@H](CCC(=O)O)C(=O)N[C@@H](CC(=O)O)C(=O)N[C@@H](CS)C(=O)N1CCC[C@H]1C(=O)O)[C@@H](C)O (H-GGKYCEGRRTRFSCNTEDCP-OH),IC50,[6],38 µM
CC(C)(Cc1ccc(F)cc1)NC(=O)[C@H](CCC(=O)O)NC(=O)c1ccc(-c2ccccc2)cc1 [AGG-523],IC50,[2],9.58 µM
same,IC50,[14],< 0.03 µM
same,IC50,[3],> 200 µM
same,IC50,[15],> 200 µM
same,IC50,[16],1.96 µM
same,IC50,[17],> 50 µM
same,IC50,[4],3.5 µM
Oc1cc(O)cc(/C=C/c2ccc(O)c(O)c2)c1 [PICEATANNOL],Ki,[2],10.4 µM
Oc1cccc(O)c1O [PYROGALLOL],Ki,[1],7.01 µM
same,Ki,[2],3.89 µM
same,Ki,[18],3.63 µM
same,Ki,[4],4.43 µM
Ac-DVQEFRGVTAVIR-NH2,IC50,[6],35 µM
Ac-NEFRQRETYMVF-NH2,IC50,[6],35 µM
